For 16 compounds, EC50 results are on record in patent US8802661B2, “C-28 amides of modified C-3 betulinic acid derivatives as HIV maturation inhibitors” (priority 2010, dated 2014).

Structures are written as SMILES.

The subject of the first assay is recombinant NL4-3 virus (Renilla luciferase in nef, Gag P373S). Put plainly: HIV Cell Culture Assay (luciferase reporter virus in MT-2 cells). Type of assay: cell-based. The following applies: NL43. In short, it runs like this: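 Luciferase signal is the read-out: after 4-5 days of infection in the presence of serially diluted compound, MT-2 cells are lysed with a premix of lysis buffer, luciferase reagent and Stop & Glo substrate, and luminescence is read immediately.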
`C=C(C)[C@@H]1CC[C@]2(C(=O)NCCCN(CC)CC(=O)O)CC[C@]3(C)[C@H](CC[C@@H]4[C@@]5(C)CC=C(c6ccc(C(=O)O)cc6)C(C)(C)[C@@H]5CC[C@]43C)[C@@H]12` [Example 102, 4-((1R,3aS,5aR,5bR,7aR,11aS,11bR,13aR,13bR)-3a-(3-((carboxymethyl)(ethyl)amino)propylcarbamoyl)-5a,5b,8,8,11a-pentamethyl-1-(prop-1-en-2-yl)-2,3,3a,4,5,5a,5b,6,7,7a,8,11,11a,11b,12,13,13a,13b-octadecahydro-1H-cyclopenta[a]chrysen-9-yl)benzoic acid]: the EC50 is 10.5 nM.
In the case of `C=C(C)[C@@H]1CC[C@]2(C(=O)NCCN(C(C)C)C(C)C)CC[C@]3(C)[C@H](CC[C@@H]4[C@@]5(C)CC=C(c6ccc(C(=O)O)cc6)C(C)(C)[C@@H]5CC[C@]43C)[C@@H]12` [Example 67, 4-((1R,3aS,5aR,5bR,7aR,11aS,11bR,13aR,13bR)-3a-(2-(diisopropylamino)ethylcarbamoyl)-5a,5b,8,8,11a-pentamethyl-1-(prop-1-en-2-yl)-2,3,3a,4,5,5a,5b,6,7,7a,8,11,11a,11b,12,13,13a,13b-octadecahydro-1H-cyclopenta[a]chrysen-9-yl)benzoic acid], the EC50 was determined as 3.8 nM.
With `C=C(C)[C@@H]1CC[C@]2(C(=O)NCc3cccs3)CC[C@]3(C)[C@H](CC[C@@H]4[C@@]5(C)CC=C(c6ccc(C(=O)O)cc6)C(C)(C)[C@@H]5CC[C@]43C)[C@@H]12` [Example 42, 4-((1R,3aS,5aR,5bR,7aR,11aS,11bR,13aR,13bR)-5a,5b,8,8,11a-pentamethyl-1-(prop-1-en-2-yl)-3a-(thiophen-2-ylmethylcarbamoyl)-2,3,3a,4,5,5a,5b,6,7,7a,8,11,11a,11b,12,13,13a,13b-octadecahydro-1H-cyclopenta[a]chrysen-9-yl)benzoic acid], the concentration for a half-maximal effect (EC50) amounted to 120 nM.
Turning to `C=C(C)[C@@H]1CC[C@]2(C(=O)N3CCCC(C(=O)N(CC)CC)C3)CC[C@]3(C)[C@H](CC[C@@H]4[C@@]5(C)CC=C(c6ccc(C(=O)O)cc6)C(C)(C)[C@@H]5CC[C@]43C)[C@@H]12` (stereo partly drawn) [Example 11, 4-((1R,3aS,5aR,5bR,7aR,11aS,11bR,13aR,13bR)-3a-(3-(diethylcarbamoyl)piperidine-1-carbonyl)-5a,5b,8,8,11a-pentamethyl-1-(prop-1-en-2-yl)-2,3,3a,4,5,5a,5b,6,7,7a,8,11,11a,11b,12,13,13a,13b-octadecahydro-1H-cyclopenta[a]chrysen-9-yl)benzoic acid], the EC50 stood at 61 nM.
For `C=C(C)[C@@H]1CC[C@]2(C(=O)Nc3nc(C(=O)O)c(C)s3)CC[C@]3(C)[C@H](CC[C@@H]4[C@@]5(C)CC=C(c6ccc(C(=O)O)cc6)C(C)(C)[C@@H]5CC[C@]43C)[C@@H]12` [Example 47, 2-((1R,3aS,5aR,5bR,7aR,11aS,11bR,13aR,13bR)-9-(4-carboxyphenyl)-5a,5b,8,8,11a-pentamethyl-1-(prop-1-en-2-yl)-2,3,3a,4,5,5a,5b,6,7,7a,8,11,11a,11b,12,13,13a,13b-octadecahydro-1H-cyclopenta[a]chrysene-3a-carboxamido)-5-methylthiazole-4-carboxylic acid], the EC50 was determined as 8.7 nM.

The same assay, now with this note: NL43, read-out: EC50 Group.
In the case of `C=C(C)[C@@H]1CC[C@]2(C(=O)N[C@@H](CC(C)C)C(=O)O)CC[C@]3(C)[C@H](CC[C@@H]4[C@@]5(C)CC=C(c6ccc(C(=O)O)cc6)C(C)(C)[C@@H]5CC[C@]43C)[C@@H]12` [Example 59, 4-((1R,3aS,5aR,5bR,7aR,11aS,11bR,13aR,13bR)-3a-((S)-1-carboxy-3-methylbutylcarbamoyl)-5a,5b,8,8,11a-pentamethyl-1-(prop-1-en-2-yl)-2,3,3a,4,5,5a,5b,6,7,7a,8,11,11a,11b,12,13,13a,13b-octadecahydro-1H-cyclopenta[a]chrysen-9-yl)benzoic acid], the EC50 was < 100 nM.
As to `C=C(C)[C@@H]1CC[C@]2(C(=O)NCCN3CCOCC3)CC[C@]3(C)[C@H](CC[C@@H]4[C@@]5(C)CC=C(c6ccc(C(=O)O)cc6)C(C)(C)[C@@H]5CC[C@]43C)[C@@H]12` [Example 12, 4-((1R,3aS,5aR,5bR,7aR,11aS,11bR,13aR,13bR)-5a,5b,8,8,11a-pentamethyl-3a-(2-morpholinoethylcarbamoyl)-1-(prop-1-en-2-yl)-2,3,3a,4,5,5a,5b,6,7,7a,8,11,11a,11b,12,13,13a,13b-octadecahydro-1H-cyclopenta[a]chrysen-9-yl)benzoic acid], the EC50 was < 100 nM.
Turning to `C=C(C)[C@@H]1CC[C@]2(C(=O)NCCCN(C)C)CC[C@]3(C)[C@H](CC[C@@H]4[C@@]5(C)CC=C(c6ccc(C(=O)O)cc6)C(C)(C)[C@@H]5CC[C@]43C)[C@@H]12` [Example 27, 4-((1R,3aS,5aR,5bR,7aR,11aS,11bR,13aR,13bR)-3a-(3-(dimethylamino)propylcarbamoyl)-5a,5b,8,8,11a-pentamethyl-1-(prop-1-en-2-yl)-2,3,3a,4,5,5a,5b,6,7,7a,8,11,11a,11b,12,13,13a,13b-octadecahydro-1H-cyclopenta[a]chrysen-9-yl)benzoic acid], the concentration giving a half-maximal response (EC50) is < 100 nM.
`C=C(C)[C@@H]1CC[C@]2(C(=O)N[C@@H](C)CN(C)C)CC[C@]3(C)[C@H](CC[C@@H]4[C@@]5(C)CC=C(c6ccc(C(=O)O)cc6)C(C)(C)[C@@H]5CC[C@]43C)[C@@H]12` [Example 68, 4-((1R,3aS,5aR,5bR,7aR,11aS,11bR,13aR,13bR)-3a-((S)-1-(dimethylamino)propan-2-ylcarbamoyl)-5a,5b,8,8,11a-pentamethyl-1-(prop-1-en-2-yl)-2,3,3a,4,5,5a,5b,6,7,7a,8,11,11a,11b,12,13,13a,13b-octadecahydro-1H-cyclopenta[a]chrysen-9-yl)benzoic acid]: the EC50 is < 100 nM.
Still for that read-out and setting: the value for `C=C(C)[C@@H]1CC[C@]2(C(=O)NCCC(=O)O)CC[C@]3(C)[C@H](CC[C@@H]4[C@@]5(C)CC=C(c6ccc(C(=O)O)cc6)C(C)(C)[C@@H]5CC[C@]43C)[C@@H]12` [Example 25, 4-((1R,3aS,5aR,5bR,7aR,11aS,11bR,13aR,13bR)-3a-(2-carboxyethylcarbamoyl)-5a,5b,8,8,11a-pentamethyl-1-(prop-1-en-2-yl)-2,3,3a,4,5,5a,5b,6,7,7a,8,11,11a,11b,12,13,13a,13b-octadecahydro-1H-cyclopenta[a]chrysen-9-yl)benzoic acid] was < 100 nM.
In the case of `C=C(C)[C@@H]1CC[C@]2(C(=O)NCCOC)CC[C@]3(C)[C@H](CC[C@@H]4[C@@]5(C)CC=C(c6ccc(C(=O)O)cc6)C(C)(C)[C@@H]5CC[C@]43C)[C@@H]12` [Example 69, 4-((1R,3aS,5aR,5bR,7aR,11aS,11bR,13aR,13bR)-3a-(2-methoxyethylcarbamoyl)-5a,5b,8,8,11a-pentamethyl-1-(prop-1-en-2-yl)-2,3,3a,4,5,5a,5b,6,7,7a,8,11,11a,11b,12,13,13a,13b-octadecahydro-1H-cyclopenta[a]chrysen-9-yl)benzoic acid], the EC50 is < 100 nM.
Consider `C=C(C)[C@@H]1CC[C@]2(C(=O)NCCN3CCCC3=O)CC[C@]3(C)[C@H](CC[C@@H]4[C@@]5(C)CC=C(c6ccc(C(=O)O)cc6)C(C)(C)[C@@H]5CC[C@]43C)[C@@H]12` [Example 46, 4-((1R,3aS,5aR,5bR,7aR,11aS,11bR,13aR,13bR)-5a,5b,8,8,11a-pentamethyl-3a-(2-(2-oxopyrrolidin-1-yl)ethylcarbamoyl)-1-(prop-1-en-2-yl)-2,3,3a,4,5,5a,5b,6,7,7a,8,11,11a,11b,12,13,13a,13b-octadecahydro-1H-cyclopenta[a]chrysen-9-yl)benzoic acid], for which the 50% effective concentration (EC50) was < 100 nM.
For the compound `C=C(C)[C@@H]1CC[C@]2(C(=O)NCCN3CCN(C)CC3)CC[C@]3(C)[C@H](CC[C@@H]4[C@@]5(C)CC=C(c6ccc(C(=O)O)cc6)C(C)(C)[C@@H]5CC[C@]43C)[C@@H]12` [Example 36, 4-((1R,3aS,5aR,5bR,7aR,11aS,11bR,13aR,13bR)-5a,5b,8,8,11a-pentamethyl-3a-(2-(4-methylpiperazin-1-yl)ethylcarbamoyl)-1-(prop-1-en-2-yl)-2,3,3a,4,5,5a,5b,6,7,7a,8,11,11a,11b,12,13,13a,13b-octadecahydro-1H-cyclopenta[a]chrysen-9-yl)benzoic acid], the concentration giving a half-maximal response (EC50) was < 100 nM.
As for `C=C(C)[C@@H]1CC[C@]2(C(=O)NCCC(=O)N3CCCC3C(=O)O)CC[C@]3(C)[C@H](CC[C@@H]4[C@@]5(C)CC=C(c6ccc(C(=O)O)cc6)C(C)(C)[C@@H]5CC[C@]43C)[C@@H]12` (stereo partly drawn) [Example 127, 1-(3-((1R,3aS,5aR,5bR,7aR,11aS,11bR,13aR,13bR)-9-(4-carboxyphenyl)-5a,5b,8,8,11a-pentamethyl-1-(prop-1-en-2-yl)-2,3,3a,4,5,5a,5b,6,7,7a,8,11,11a,11b,12,13,13a,13b-octadecahydro-1H-cyclopenta[a]chrysene-3a-carboxamido)propanoyl)pyrrolidine-2-carboxylic acid], the 50% effective concentration (EC50) was < 100 nM.
For `C=C(C)[C@@H]1CC[C@]2(C(=O)N3CCN(C)CC3)CC[C@]3(C)[C@H](CC[C@@H]4[C@@]5(C)CC=C(c6ccc(C(=O)O)cc6)C(C)(C)[C@@H]5CC[C@]43C)[C@@H]12` [Example 10, 4-((1R,3aS,5aR,5bR,7aR,11aS,11bR,13aR,13bR)-5a,5b,8,8,11a-pentamethyl-3a-(4-methylpiperazine-1-carbonyl)-1-(prop-1-en-2-yl)-2,3,3a,4,5,5a,5b,6,7,7a,8,11,11a,11b,12,13,13a,13b-octadecahydro-1H-cyclopenta[a]chrysen-9-yl)benzoic acid], the EC50 is < 100 nM.
Take `C=C(C)[C@@H]1CC[C@]2(C(=O)NCCNC(C)=O)CC[C@]3(C)[C@H](CC[C@@H]4[C@@]5(C)CC=C(c6ccc(C(=O)O)cc6)C(C)(C)[C@@H]5CC[C@]43C)[C@@H]12` [Example 30, 4-((1R,3aS,5aR,5bR,7aR,11aS,11bR,13aR,13bR)-3a-(2-acetamidoethylcarbamoyl)-5a,5b,8,8,11a-pentamethyl-1-(prop-1-en-2-yl)-2,3,3a,4,5,5a,5b,6,7,7a,8,11,11a,11b,12,13,13a,13b-octadecahydro-1H-cyclopenta[a]chrysen-9-yl)benzoic acid]: the EC50 is < 100 nM.
